Test results reported in patent US11054422B2, “Circulating astrocytes and MFSD2A as biomarkers” (priority 2017, dated 2021).

Columns and labels:
α7 nAChR = target: T1, α7 nAChR (Mus musculus, UniProt P49582); assay: Memantine effect on E. coli K1 (E44)-induced cAstr/cBMEC shedding in neonatal mice; assay type: in vivo; settings: neonatal (10 day-old) mice intraperitoneally injected with E44 and treated with MEM, P<0.001
T1 construct: endogenous in cells; host or cells: live neonatal (10 day-old) mice, in vivo; C57BL/6J is the strain stated for the animal experiments in general
T1 sequence (P49582 23-502): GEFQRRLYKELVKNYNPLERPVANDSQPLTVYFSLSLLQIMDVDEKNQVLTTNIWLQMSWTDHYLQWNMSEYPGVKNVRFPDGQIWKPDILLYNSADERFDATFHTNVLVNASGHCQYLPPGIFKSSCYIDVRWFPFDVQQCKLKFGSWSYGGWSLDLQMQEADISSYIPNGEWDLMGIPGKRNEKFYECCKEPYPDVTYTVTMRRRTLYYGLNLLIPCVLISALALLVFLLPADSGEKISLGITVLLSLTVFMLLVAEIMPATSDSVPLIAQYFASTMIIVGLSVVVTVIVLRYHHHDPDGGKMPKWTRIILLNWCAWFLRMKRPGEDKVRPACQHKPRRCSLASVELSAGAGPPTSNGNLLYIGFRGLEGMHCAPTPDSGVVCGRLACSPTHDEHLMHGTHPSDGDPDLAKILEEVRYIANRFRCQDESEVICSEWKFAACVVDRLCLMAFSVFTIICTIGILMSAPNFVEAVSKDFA
Excerpt: (§1) Then the suspensions were collected and centrifuged.
As α7 nAChR plays an important role in CNS Inflammation induced by microbial and non-microbial factors, we have proposed that turnover and shedding of astrocytes and BMECs could be regulated by α7 nAChR. To test this hypothesis, the correlation of α7 nAChR with cAstr/cBMEC shedding and CNS inflammation induced by meningitic E. coli K1 (E44) was examined an α7 nAChR antagonist memantine (MEM) described in the experimental methods herein. In this study, neonatal (10 day-old) mice were intraperitoneally injected with E44 and treated with MEM.

cAstr and cBMECs = assay: cAstr and cBMEC density in peripheral blood of mice treated with gp120 and METH; assay type: in vivo, mouse; settings: vs controls without treatment (CON)
Excerpt: as §1

BBB = assay: Blood cell biomarkers, serum markers and BBB extravasation in mice treated with nicotine, METH and gp120; settings: for Evans blue and albumin extravasation into the brain / blood levels of CD133+/CD146+ endothelial PCs (EPCs) / blood levels of circulating Astrocytes (cAstr) / blood levels of circulating BMECs (cBMECs), CD146+/S100B+: treated mice
Method: Nicotine tartrate (NT) and methamphetamine (METH) were purchased from Sigma-Aldrich (St. Louis, Mo.). Dynabeads® M-450 Tosylactivated was obtained from Invitrogen (Carlsbad, Calif.) and utilized for magnetic bead extraction. Ulexeuropaeus 1 (UEA I) lectin and mounting medium with 4′,6-diamidino-2-phenylindole (DAPI) were purchased from Vector (Buringame, Calif.). HIV-1 gp120 was purchased from Immunodiagnostics (Woburn, Mass.). Serum levels of molecular markers were determined by ELISA using antibodies and antigens from Creative Biomart (New York, N.Y.) (S100B) and ProteinTech (Chicago, Ill.) (ubiquitin C-terminal hydrolase 1, UCHL1). The Mfsd 2a antibody was purchased from Santa Cruz Biotechnology, Inc. (Dallas, TEXAS). All primary antibodies (Ab) were purchased from the commercial sources: a rabbit anti-α7 nAChR Ab from Genescript (Piscataway, N.J.); a rat anti-mouse Ly-6G (Gr-I) Ab; a mouse anti-CD44 Ab (sc-7297), a rabbit anti-actin (sc-7210), and a rabbit anti-GLUT1 Ab from Santa Cruz Biotechnology (Santa Cruz, Calif.); a rat anti-mouse Ly-6G (Gr-I) Ab FITC-conjugated and an anti-mouse CD146 Ab FITC-conjugated from eBiosciences (San Diego, Calif.), a rabbit anti-SIOOB Ab rhodamine-conjugated from BD Biosciences, and a rabbit anti-CD133 Ab rhodamine-conjugated from Abbiotec (San Diego, Calif.). Transwell filters (3 μm pore size, 6.5 mm diameter), blood plates and CBA assay kit were purchased from BD Biosciences (San Jose, Calif.). Chemicals were purchased from Sigma-Aldrich (St. Louis, Mo.) unless otherwise noted.
Mouse cBMECs were isolated with UIexeuropaeus 1 (UEA 1) lectin-coated Dynabeads as known by one of ordinary skill in the art. The beads were prepared according to the manufacturer's instructions (Invitrogen) and re-suspended in Hanks' balanced salt solution (HBSS. Invitrogen Corp., Carlsbad, Calif., USA) plus 5% fetal calf serum (HBSS+5% FCS) to a final concentration of 4×10^8 beads/mi. Mouse cBMECs in whole blood were affinity captured at 4TC with UEA UEA-1 coated Dynabeads. To eliminate non-specific cell binding to the beads, the cell suspensions were flushed through the pipette tip during the washing steps and then suspended in PBS by using a magnetic particle concentrator (MPC). The bound cells were incubated with 0.5M fucose for 10 min at room temperature to release the beads from target cells. The beads were then washed 5 times with HBSS+5% FBS and collected with the MPC. Then the suspensions were collected and centrifuged. The pellet was collected and affinity captured at 4-C with Msd2a-precoated Dynabeads. After blocking and washing, the cells conjugated to the beads were fixed with 2% paraformaldehyde and 0.25% glutaradehyde for 30 minutes. Then the FITC-conjugated CD146 antibody (BMECs specific marker, used for cBMEC identification) was added and incubated with the beads-bound cells overnight (dark). At last, DAPI was added and incubated with the beads-bound cells for 30 min. The cells (10 ul) were transferred to the cell counter, and counted under a florescence microscope.
Mouse astrocytes were isolated with Concanavalin A (ConA)-coated magnetic beads as known by one of ordinary skill in the art. Dynabeads™ beads were prepared according to the manufacturer's instructions (Invitrogen) and re-suspended in Hanks' balanced salt solution (HBSS, Invitrogen Corp., Carlsbad, Calif., USA) plus 5% fetal calf serum (HBSS+5% FCS) to a final concentration of 4×10^8 beads/ml. Mouse astrocytes in whole blood were affinity captured at 4° C. with ConA coated Dynabeads™. To eliminate non-specific cell binding to the beads, the cell suspensions were flushed through the pipette tip during the washing steps and then suspended in PBS by using a magnetic particle concentrator (MPC). The bound cells were incubated with 0.5M fucose for 10 min at room temperature to release the beads from target cells. The beads were then washed 5 times with HBSS+5% FBS and collected with the MPC. Then the suspensions were collected and centrifuged. […]

| Structure (SMILES) | shedding of cAstr (blood level) (α7 nAChR) | shedding of cBMECs (blood level) (α7 nAChR) | shedding of cAstr (blood level) (α7 nAChR; listed as memantine) | shedding of cBMECs (blood level) (α7 nAChR; listed as memantine) | Astr (cAstr) shedding (cAstr and cBMECs; FIG. 6A) | cBMEC shedding (cAstr and cBMECs; FIG. 6B) | Evans blue and albumin extravasation into the brain (BBB) | blood levels of CD133+/CD146+ endothelial PCs (EPCs) (BBB) | blood levels of circulating Astrocytes (cAstr) (BBB) | blood levels of circulating BMECs (cBMECs), CD146+/S100B+ (BBB) | serum levels of S100B (BBB; mice, ELISA) | serum levels of ubiquitin C-terminal hydrolase 1 (BBB; mice, ELISA) |
| --- | --- | --- | --- | --- | --- | --- | --- | --- | --- | --- | --- | --- |
| CC12CC3CC(C)(C1)CC(N)(C3)C2 [MEM, memantine] | significantly block | significantly block | reduce | reduce | – | – | – | – | – | – | – | – |
| CN[C@@H](C)Cc1ccccc1 [METH, methamphetamine] | – | – | – | – | significantly induce | significantly induce | enhanced | increased blood levels | increased blood levels | increased blood levels | – | – |
| CN1CCCC1c1cccnc1.O=C(O)C(O)C(O)C(=O)O (stereo not shown) [nicotine, Nicotine tartrate] | – | – | – | – | – | – | enhanced | increased blood levels | increased blood levels | increased blood levels | significantly increase | significantly increase |
